According to patent US20190276475A1, “CRYSTAL AND SALT OF NITROIMIDAZOLE, AND MANUFACTURING METHOD THEREOF” (priority 2016, published 2019):

Assays:
physchem [1] = details: 22 °C, pH 2, aqueous buffer, kinetic from dmso stock
Procedure: The test compound and the control compound (10 mM DMSO mother liquor, 10 μL per well) were added to a 96-well plate containing 490 μL buffer per well. After 2 minutes of vortexing, the sample plate were incubated for 24 hours at room temperature (22±2° C.) on a shaker. 200 μL sample was then transferred to a Multi Screen filter plate (polycarbonate membrane), filtered through a millipore vacuum manifold and the filtrate was collected. The concentration of the compound in the filtrate was determined by HPLC-UV. Three UV standard solution of different concentrations and the solubility test sample were injected successively. Each sample was inserted twice, and the concentration was calculated by standard curve line and averaged.

[2] = Stability test in different solvents for the crystal form A; details: stirred at 40° C. for 2 days
Procedure: The mixture was stirred at 40° C. for 2 days, and then centrifuged. The solid in all samples was collected, dried in a vacuum oven (40° C.) overnight, and was tested for crystal form by XRPD.

[3] = Solid stability test under high temperature and high humidity conditions
Source text: The samples placed under different conditions were sampled and tested on the 5th day and 10th day, and the test results were compared with the initial test results of 0 days.

physchem [4] = details: thermodynamic from solid, Solubility (mg/mL)
Procedure: The solubility test was carried out by using a manual stepwise dilution method under normal temperature conditions while observing the dissolution. About 2 mg of the crystal form C of the compound represented by formula (I) was added into different vials used in the liquid phase, and then an organic solvent or solvent mixture was added in small portions to observe the dissolution of the compound.

[5] = test system: Mycobacterium tuberculosis Erdman, ATCC 35801; test: In vivo efficacy in mouse model of chronic infection; details: mice, whole lung, day 32 to 59 after infection, counted day 60
M. bovis ATCC35737 = assay type: cell-based
M. tuberculosis H37Rv = test: In vitro MIC against M. tuberculosis H37Rv, MABA; assay type: cell-based
M. tuberculosis H37R = test: In vitro MIC against M. tuberculosis H37Rv, LORA; assay type: cell-based; details: Mycobacterium tuberculosis, read-out: M. tuberculosis H37R LORA (MIC) (μg/mL)
MDR1-MDCK cells = test: Bidirectional permeability in MDR1-MDCK cells; assay type: in vitro ADME; details: conclusion
Procedure: MDR1-MDCK cells permanently expressing human P-glycoprotein were inoculated in a 96-well Insert cell plate and cultured for 4-7 days to form convergent monolayer cells.
After the incubation, the sample solutions in the donor wells and receiver wells were immediately mixed with cold acetonitrile solution containing an internal standard. The amount of the intracellular accumulated compound was measured by lysing the cells with the cold acetonitrile solution containing an internal standard. The concentration of the test compound in all samples (including the starting dosing solution, the supernatant in the donor wells, the receiving solution, and the cell lysate) was analyzed by LC/MS/MS method. The concentration of the test compound was expressed by the ratio of the peak area of the compound to the peak area of the internal standard.
The standard conditions for the transport experiment of the compound represented by formula (I) were as follows:
Test concentration: 2 (DMSO≤1%);
Direction: bidirectional transport, including A→B and B→A these two directions;
Inoculated time: single time, 2.5 hours;
Buffer for transport: HBSS, pH 7.4;
Inoculated condition: 37° C., 5% CO2, 95% relative humidity.

Vero Cell = test: Vero cell cytotoxicity
[6] = high temperature (60° C., open), 5th day
[7] = high temperature (60° C., open), 10th day

SMILES: C[C@]1(CN2Cc3nc(-c4ccc(F)cc4)sc3C2)Cn2cc([N+](=O)[O-])nc2O1.O=S(=O)(O)c1ccccc1
- solubility kinetic at 24 h (physchem [1]): 32.2 µM
- Appearance (2 days) ([2]; acetonitrile-water (1:1)): suspension
- Result (crystal form by XRPD) ([2]; acetonitrile-water (1:1)): crystal form A
- Appearance (2 days) ([2]; acetonitrile): suspension
- Result (crystal form by XRPD) ([2]; acetonitrile): crystal form A
- Appearance (2 days) ([2]; ethanol-water (1:1)): suspension
- Result (crystal form by XRPD) ([2]; ethanol-water (1:1)): crystal form A
- Appearance (2 days) ([2]; ethanol): suspension
- Result (crystal form by XRPD) ([2]; ethanol): crystal form A
- Appearance (2 days) ([2]; ethyl acetate): suspension
- Result (crystal form by XRPD) ([2]; ethyl acetate): crystal form A
- Appearance (2 days) ([2]; isopropanol-water (1:1)): suspension
- Result (crystal form by XRPD) ([2]; isopropanol-water (1:1)): crystal form A
- Appearance (2 days) ([2]; isopropanol): suspension
- Result (crystal form by XRPD) ([2]; isopropanol): crystal form A
- Appearance ([3]; 0 day): grey powder
- Total impurity (%) ([3]; 0 day): 1.32%
- XRPD ([3]; 0 day): crystal
- Appearance ([3]; […], open), 5th day): grey powder
- Total impurity (%) ([3]; […], open), 5th day): 1.32%
- XRPD ([3]; […], open), 5th day): crystal
- Total impurity (%) ([3]; […], open), 10th day): 1.60%
- XRPD ([3]; […], open), 10th day): crystal
- Appearance [3, 6]: grey powder
- Total impurity (%) [3, 6]: 1.49%
- XRPD [3, 6]: crystal
- Total impurity (%) [3, 7]: 1.86%
- XRPD [3, 7]: crystal

SMILES: C[C@]1(CN2Cc3nc(-c4ccc(F)cc4)sc3C2)Cn2cc([N+](=O)[O-])nc2O1
- solubility (physchem [4]; aqueous with cosolvent or surfactant or cyclodextrin): < 2000 µg/mL
- solubility (physchem [4]; water): < 2000 µg/mL

SMILES: C[C@]1(COc2ccc(N3CCC(Oc4ccc(OC(F)(F)F)cc4)CC3)cc2)Cn2cc([N+](=O)[O-])nc2O1 [OPC-67683, Delamanid, reference compound]
- Log value reduced ([5]; 100 mg/kg oral): 0.9
- Number of colony ([5]; 100 mg/kg oral): 2.3E+05

SMILES: CO[C@H]1/C=C/O[C@@]2(C)Oc3c(C)c(O)c4c(O)c(c(/C=N/N5CCN(C)CC5)c(O)c4c3C2=O)NC(=O)/C(C)=C\C=C\[C@H](C)[C@H](O)[C@@H](C)[C@@H](O)[C@@H](C)[C@H](OC(C)=O)[C@@H]1C [Rifampin, reference compound]
- Log value reduced ([5]; 15 mg/kg oral): 2.2
- Number of colony ([5]; 15 mg/kg oral): 1.2E+04

SMILES: NC(=O)c1cnccn1 [pyrazinamide, reference compound]
- Log value reduced ([5]; 150 mg/kg oral): 1.2
- Number of colony ([5]; 150 mg/kg oral): 1.2E+05

SMILES: C[C@]1(CN2Cc3nc(-c4ccc(F)cc4)sc3C2)Cn2cc([N+](=O)[O-])nc2O1 [the compound represented by formula (I)]
- M. bovis ATCC35737 (M. bovis ATCC35737; MIC, BCG strain, Alamar Blue): <1 µg/mL
- inhibitory activity against M. bovis BCG strain (in words) (M. bovis ATCC35737; conclusion): good inhibitory activity
- MIC (M. tuberculosis H37Rv; Mycobacterium tuberculosis, H37RV): < 1 µg/mL
- inhibitory activity against M. tuberculosis H37Rv strain (in words) (M. tuberculosis H37Rv; conclusion): good inhibitory activity
- MIC (M. tuberculosis H37R): 1 to 32 µg/mL
- permeability compared to the reference compound OPC-67683 (in words) (MDR1-MDCK cells): better permeability
- IC50 (Vero Cell; Chlorocebus sabaeus, Vero, read-out: Vero Cell (IC50) (μg/mL)): > 32 µg/mL
- cytotoxicity (in words) (Vero Cell; conclusion): without cytotoxicity

SMILES: C[C@]1(CN2Cc3nc(-c4ccc(F)cc4)sc3C2)Cn2cc([N+](=O)[O-])nc2O1.O=S(=O)(O)c1ccccc1 [the compound represented by formula (II)]
- Log value reduced ([5]; 10 mg/kg oral): 0.9
- Number of colony ([5]; 10 mg/kg oral): 2.7E+05
- Log value reduced ([5]; 30 mg/kg oral): 1.3
- Number of colony ([5]; 30 mg/kg oral): 1.0E+05
- Log value reduced ([5]; 100 mg/kg oral): 1.7
- Number of colony ([5]; 100 mg/kg oral): 4.1E+04
